According to patent US20040039211A1, “Tetrapyrroles” (DUKE UNIVERSITY AND NATIONAL JEWISH MEDICAL AND RESEARCH …, priority 2000, published 2004):
pIC50: −log10 of the molar value.

Experiments:
[1] = Reactivity towards nitric oxide (uv/vis); assay type: physicochemical; settings: 14 μM, 90-fold excess NO, 90/10 methanol/PBS, 1 hour
[2] = test system: SOD-deficient E. coli JI132; assay: Aerobic growth of SOD-deficient E. coli in minimal medium; assay type: cell-based
Method: FIG. 13. […] The 20 mM ethanolic/albumin solution of compound was diluted into the medium. Also the growth of SOD-deficient E. coli was followed in the presence of 0.15% ethanol only (squares).
SOD activity can be monitored in the presence and absence of EDTA using the method of McCord and Fridovich (J. Biol. Chem. 244:6049 (1969)). The efficacy of a mimetic can also be determined by measuring the effect of the mimetic on the aerobic growth of a SOD null E. coli strain versus a parent strain. Specifically, parental E. coli (AB1157) and SOD null E. coli. […]
Effects on E. coli. E. coli strains AB1157 (SOD-proficient, wild type) and JI132 (SOD-deficient, sodAsodB) were obtained from J. A. Imlay (Imlay et al, J. Bacteriol. 169:2967 (1987)). […] Cultures were treated as previously described (Faulkner et al, J. Biol. Chem. 269:23471 (1994); Benov et al, J. Biol. Chem. 273:10313 (1998)). Due to the low water solubility, the compounds were solubilized with albumin in medium at a 1:1 molar ratio. Albumin itself had no effect on growth in the concentration range employed. Since methanol was toxic to the SOD-deficient strain of E. coli even when present in medium at 0.15%, the stock solutions of the compounds were prepared in ethanol.

[3] = test system: rat brain homogenates; assay: Lipid peroxidation of rat brain homogenates by iron/ascorbate (TBARS); assay type: biochemical; settings: concentration that reduced lipid peroxidation by one-half
Method: The ability of mimetics to inhibit lipid peroxidation can be assessed as described by Day et al, Free Rad. Biol. Med. 26:730 (1990). Iron and ascorbate can be used to initiate lipid peroxidation in tissue homogenates and the formation of thiobarbituric acid reactive species (T BARS) measured.
Two metallotetrapyrroles were tested for antioxidant activity, in vitro. In particular, the compounds were assayed for their ability to dismutate superoxide in the indirect method that utilizes xanthine and xanthine oxidase to generate superoxide and cytochrome c reduction as indicator of superoxide flux. […] The compounds were also assayed for their ability to prevent lipid peroxidation of rat brain homogenates by iron and ascorbate. The mixture of iron and ascorbate generates reactive oxygen species that oxidize biological lipids and these oxidized lipids can be detected as species that react with thiobarbituric acid (TBARS). Both compounds could inhibit the formation of TBARS and this ability correlated with their superoxide dismutase (SOD) activity (Table 5).
b) Lipid peroxidation was initiated in rat brain homogenates with iron/ascorbate and the IC50 is the concentration of compound that reduced lipid peroxidation by one-half.

## Manganese(III) Biliverdin IX Dimethylester [{Mn^IIIBVDME}2]
[1]
  reactivity towards NO (change of spectrum): No change in the spectrum
[1]; listed as compound of FIG. 2C
  reactivity towards NO (change of spectrum): No reactivity towards NO has been detected
[2]; 13 μM, after 15 hours, SOD-proficient 100%, SOD-deficient without compound 16%
  growth of SOD-deficient E. coli: 50%
[2]; 0.1 to 13 μM in minimal medium
  growth of SOD-deficient E. coli (in words): markedly improved
[2]; minimal (five amino acids) medium
  effect on SOD-deficient E. coli growing under aerobic conditions (in words): significant protection
[3]
  pIC50: 6.52
